Reference: patent US20250326749A1, “COMPOUNDS, COMPOSITIONS, AND METHODS OF USING THEREOF” (Sionna Therapeutics Inc., priority 2022, published 2025)

Each molecule was assayed against T1, ΔF508-CFTR (Homo sapiens, UniProt P13569, DEL508-508) (assay: ΔF508-CFTR-HRP trafficking assay (cell surface expression of ΔF508-CFTR)). Conditions: CFSMEo- cells transiently transfected with ΔF508-CFTR-HRP; test agent 3 μM, 48 h; HRP chemiluminescence.
T1 construct: expressed in transfected cells; host or cells: CFSMEo- (human CF submucosal gland epithelial cells, ΔF508/Q2X), transiently transfected by nucleofection
Type: cell-based
Procedure, shortened: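 Surface-expressed ΔF508-CFTR measured via extracellular HRP tag: cell-impermeable chemiluminescent substrate, 5 min, signal normalized to 0.3% DMSO vehicle.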

T1 sequence (P13569 with tags, fused parts or gaps DEL508-508): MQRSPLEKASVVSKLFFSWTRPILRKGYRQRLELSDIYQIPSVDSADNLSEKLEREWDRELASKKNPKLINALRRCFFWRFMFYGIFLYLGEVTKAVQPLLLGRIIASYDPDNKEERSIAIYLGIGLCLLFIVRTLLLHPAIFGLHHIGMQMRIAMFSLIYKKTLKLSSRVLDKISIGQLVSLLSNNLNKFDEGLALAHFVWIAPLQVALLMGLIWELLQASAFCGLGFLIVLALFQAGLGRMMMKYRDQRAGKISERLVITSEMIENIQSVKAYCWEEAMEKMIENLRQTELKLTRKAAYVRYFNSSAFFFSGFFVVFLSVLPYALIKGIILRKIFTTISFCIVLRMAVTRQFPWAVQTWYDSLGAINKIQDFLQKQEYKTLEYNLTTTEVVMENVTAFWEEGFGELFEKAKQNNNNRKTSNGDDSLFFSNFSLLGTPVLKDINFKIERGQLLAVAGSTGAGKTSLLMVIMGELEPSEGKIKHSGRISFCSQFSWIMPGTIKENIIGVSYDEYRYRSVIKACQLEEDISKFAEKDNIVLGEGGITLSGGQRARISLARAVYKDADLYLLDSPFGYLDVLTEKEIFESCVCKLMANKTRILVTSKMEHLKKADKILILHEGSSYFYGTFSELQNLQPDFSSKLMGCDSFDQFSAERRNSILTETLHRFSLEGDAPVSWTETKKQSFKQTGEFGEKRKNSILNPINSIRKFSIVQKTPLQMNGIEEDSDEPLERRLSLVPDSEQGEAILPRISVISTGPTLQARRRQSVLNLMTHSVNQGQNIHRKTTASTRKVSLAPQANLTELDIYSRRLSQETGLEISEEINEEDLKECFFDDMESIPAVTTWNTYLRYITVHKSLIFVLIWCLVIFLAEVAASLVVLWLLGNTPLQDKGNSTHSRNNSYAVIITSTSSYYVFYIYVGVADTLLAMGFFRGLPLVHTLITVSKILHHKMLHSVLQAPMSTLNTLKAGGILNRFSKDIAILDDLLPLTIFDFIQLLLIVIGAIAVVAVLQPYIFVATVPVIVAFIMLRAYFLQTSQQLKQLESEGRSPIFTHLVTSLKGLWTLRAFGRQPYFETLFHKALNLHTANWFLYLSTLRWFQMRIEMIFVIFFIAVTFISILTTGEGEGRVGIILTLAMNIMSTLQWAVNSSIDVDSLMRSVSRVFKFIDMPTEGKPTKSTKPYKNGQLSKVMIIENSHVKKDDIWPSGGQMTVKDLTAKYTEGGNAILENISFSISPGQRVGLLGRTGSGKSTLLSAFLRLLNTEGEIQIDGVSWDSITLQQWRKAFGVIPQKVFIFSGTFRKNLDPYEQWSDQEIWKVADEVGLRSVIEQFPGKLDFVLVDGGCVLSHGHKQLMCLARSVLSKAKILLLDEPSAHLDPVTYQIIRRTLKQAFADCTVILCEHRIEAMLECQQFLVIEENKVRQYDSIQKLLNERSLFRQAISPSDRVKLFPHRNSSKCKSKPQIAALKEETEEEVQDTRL

Row | RLUs: ΔF508-CFTR-HRP trafficking data normalized to the vehicle treated control (0.3% DMSO) | Structure (SMILES)
1 | C (RLU 0.0 μM-3.5 μM) | CC(C)[C@H](Nc1cc(-n2nc(C(F)(F)F)c3c2[C@@H](Oc2ccc(C(=O)O)cc2)CCC3)ccn1)c1ccc2c(c1)OC(F)(F)O2 (single isomer, unassigned) [Example 89]
2 | C (RLU 0.0 μM-3.5 μM) | O=C(O)c1ccc(O[C@H]2CCCc3c(C(F)(F)F)nn(-c4ccnc(N[C@H](c5ccc6c(c5)OC(F)(F)O6)C5CC5)c4)c32)cc1 (single isomer, unassigned) [Example 90]
3 | A (RLU 5.0 μM-10 μM) | C[C@H](Nc1cccc(-n2nc(C(F)(F)F)c3c2[C@@H](Oc2ccc(C(=O)O)cc2)CCC3)n1)c1ccc2c(c1)OC(F)(F)O2 (single isomer, unassigned) [Example 91]
4 | B (RLU 3.5 μM-5.0 μM) | C[C@H](Nc1nc(-n2nc(C(F)(F)F)c3c2[C@@H](Oc2ccc(C(=O)O)cc2)CCC3)ccc1F)c1ccc2c(c1)OC(F)(F)O2 (single isomer, unassigned) [Example 92]
5 | A (RLU 5.0 μM-10 μM) | C[C@H](Nc1cc(-n2nc(C(F)(F)F)c3c2[C@@H](Nc2ccc(C(=O)O)cc2)CCC3)ccn1)c1ccc2c(c1)OC(F)(F)O2 (single isomer, unassigned) [Example 93]
6 | B (RLU 3.5 μM-5.0 μM) | C[C@H](Oc1cc(-n2nc(C#N)c3c2[C@@H](Oc2ccc(C(=O)O)cc2)CCC3)ccc1F)c1ccc2c(c1)OC(F)(F)O2 (single isomer, unassigned) [Example 104]
7 | A (RLU 5.0 μM-10 μM) | C[C@H](Oc1cc(-n2nc(C(F)(F)F)c3c2[C@@H](Nc2ccc(C(=O)O)cc2)CCC3)ccn1)c1ccc2c(c1)OC(F)(F)O2 (single isomer, unassigned) [Example 109]
8 | C (RLU 0.0 μM-3.5 μM) | C[C@H](Oc1cc(-n2nc(C(F)(F)F)c3c2[C@@H](NC(=O)c2ccc(C(=O)O)cc2)CCC3)ccn1)c1ccc2c(c1)OC(F)(F)O2 (single isomer, unassigned) [Example 114]
9 | B (RLU 3.5 μM-5.0 μM) | C[C@H](Oc1cc(-n2nc(C(F)(F)F)c3c2N(Cc2ccc(C(=O)O)cc2)CCC3)ccn1)c1ccc2c(c1)OC(F)(F)O2 [Example 8, 4-[[1-[2-[(1S)-1-(2,2-difluoro-1,3-benzodioxol-5-yl)ethoxy]-4-pyridyl]-3-(trifluoromethyl)-5,6-dihydro-4H-pyrazolo[3,4-b]pyridine-7-yl]methyl]benzoic acid]
10 | B (RLU 3.5 μM-5.0 μM) | CC(Oc1cccc(-n2nc(C(F)(F)F)c3c2C(Oc2ccc(C(=O)O)cc2)CCC3)c1)c1ccc2c(c1)OC(F)(F)O2 (stereo not drawn) [Example 19, 4-[[1-[3-[1-(2,2-difluoro-1,3-benzodioxol-5-yl)ethoxy]phenyl]-3-(trifluoromethyl)-4,5,6,7-tetrahydroindazol-7-yl]oxy]benzoic acid]
11 | B (RLU 3.5 μM-5.0 μM) | O=C(O)c1ccc(OC2CCCc3c(C(F)(F)F)nn(-c4cccc(OCc5ccc6c(c5)OC(F)(F)O6)c4)c32)cc1 (stereo not drawn) [Example 20, 4-[[1-[3-[(2,2-difluoro-1,3-benzodioxol-5-yl)methoxy]phenyl]-3-(trifluoromethyl)-4,5,6,7-tetrahydroindazol-7-yl]oxy]benzoic acid]

Further lines, the molecule ahead of its results:

Row | Structure (SMILES) | RLUs: ΔF508-CFTR-HRP trafficking data normalized to the vehicle treated control (0.3% DMSO)
12 | C[C@H](Nc1cc(-n2nc(C(F)(F)F)c3c2[C@@H](OC24CC(C(=O)O)(C2)C4)CCC3)ccc1F)c1ccc2c(c1)OC(F)(F)O2 (single isomer, unassigned) [Example 95 (P1)] | C (RLU 0.0 μM-3.5 μM)
13 | C[C@H](Oc1cc(-n2nc(C(F)(F)F)c3c2[C@@H](Nc2ccc(C(=O)O)cc2)CCC3)ccn1)c1cc2c(cc1F)OC(F)(F)O2 (single isomer, unassigned) [Example 110] | B (RLU 3.5 μM-5.0 μM)
14 | C[C@H](Oc1cc(-n2nc(C(F)(F)F)c3c2[C@@H](Oc2ccc(-c4nc(=O)o[nH]4)cc2)CCC3)ccc1F)c1ccc2c(c1)OC(F)(F)O2 (single isomer, unassigned) [Example 111] | C (RLU 0.0 μM-3.5 μM)
15 | C[C@H](Oc1cc(-n2nc(C(F)(F)F)c3c2[C@@H](Oc2ccc(-c4nc(=O)o[nH]4)cc2)CCC3)ccn1)c1ccc2c(c1)OC(F)(F)O2 (single isomer, unassigned) [Example 112] | A (RLU 5.0 μM-10 μM)
16 | C[C@H](Oc1cc(-n2nc(C(F)(F)F)c3c2[C@H](NC(=O)C24CC(C(=O)O)(C2)C4)CCC3)ccn1)c1ccc2c(c1)OC(F)(F)O2 (single isomer, unassigned) [Example 113] | C (RLU 0.0 μM-3.5 μM)
17 | C[C@H](Oc1cccc(-c2nn(CC(F)(F)F)c3c2[C@@H](Oc2ccc(C(=O)O)cc2)CCC3)n1)c1ccc2c(c1)OC(F)(F)O2 (single isomer, unassigned) [Example 126] | A (RLU 5.0 μM-10 μM)
18 | C[C@H](Nc1cc(-c2nn(C3COC3)c3c2[C@@H](Oc2ccc(C(=O)O)cc2)CCC3)ccn1)c1ccc2c(c1)OC(F)(F)O2 (single isomer, unassigned) [Example 127] | A (RLU 5.0 μM-10 μM)
19 | CC(C)n1nc(-c2ccnc(N[C@@H](C)c3ccc4c(c3)OC(F)(F)O4)c2)c2c1CCC[C@@H]2Oc1ccc(C(=O)O)cc1 (single isomer, unassigned) [Example 128] | B (RLU 3.5 μM-5.0 μM)
20 | C[C@H](Nc1cc(-c2nn(CC(F)(F)F)c3c2[C@@H](Oc2ccc(C(=O)O)cc2)CCC3)ccn1)c1ccc2c(c1)OC(F)(F)O2 (single isomer, unassigned) [Example 129] | B (RLU 3.5 μM-5.0 μM)
21 | C[C@H](Oc1cc(-n2nc(C(F)(F)F)c3c2C(O[C@H]2CC[C@H](C(=O)O)CC2)CCC3)cnc1F)c1ccc2c(c1)OC(F)(F)O2 (stereo in doubt) [79 (P2), 4-[[(7R)-1-[5-[(1S)-1-(2,2-difluoro-1,3-benzodioxol-5-yl)ethoxy]-6-fluoro-3-pyridyl]-3-(trifluoromethyl)-4,5,6,7-tetrahydroindazol-7-yl]oxy]cyclohexanecarboxylic acid] | A (RLU 5.0 μM-10 μM)
22 | C[C@H](Oc1cc(-n2nc(C(F)(F)F)c3c2C(O[C@H]2CC[C@H](C(=O)O)CC2)CCC3)cc(F)n1)c1ccc2c(c1)OC(F)(F)O2 (stereo in doubt) [80 (P2), 4-[[(7R)-1-[2-[(1S)-1-(2,2-difluoro-1,3-benzodioxol-5-yl)ethoxy]-6-fluoro-4-pyridyl]-3-(trifluoromethyl)-4,5,6,7-tetrahydroindazol-7-yl]oxy]cyclohexanecarboxylic acid] | B (RLU 3.5 μM-5.0 μM)
23 | CC(Oc1cc(-n2nc(C(F)(F)F)c3c2C(OC24CC(C(=O)O)(C2)C4)CCC3)ccn1)c1cc2c(cn1)OC(F)(F)O2 (stereo in doubt) [Example 46, 3-[[1-[2-[(1R)-1-(2,2-difluoro-[1,3]dioxolo[4,5-c]pyridine-6-yl)ethoxy]-4-pyridyl]-3-(trifluoromethyl)-4,5,6,7-tetrahydroindazol-7-yl]oxy]bicyclo[1.1.1]pentane-1-carboxylic acid] | B (RLU 3.5 μM-5.0 μM)
24 | CC(Oc1cccc(-n2nc(C(F)(F)F)c3c2N(CC24CC(C(=O)O)(C2)C4)CCC3)c1)c1ccc2c(c1)OC(F)(F)O2 (stereo not drawn) [Example 10, 3-[[1-[3-[1-(2,2-difluoro-1,3-benzodioxol-5-yl)ethoxy]phenyl]-3-(trifluoromethyl)-5,6-dihydro-4H-pyrazolo[3,4-b]pyridine-7-yl]methyl]bicyclo[1.1.1]pentane-1-carboxylic acid] | B (RLU 3.5 μM-5.0 μM)
25 | C[C@H](Oc1cccc(-n2nc(C(F)(F)F)c3c2N(CC24CC(C(=O)O)(C2)C4)CCC3)c1)c1ccc2c(c1)OC(F)(F)O2 [Example 11, 3-[[1-[3-[(1S)-1-(2,2-difluoro-1,3-benzodioxol-5-yl)ethoxy]phenyl]-3-(trifluoromethyl)-5,6-dihydro-4H-pyrazolo[3,4-b]pyridine-7-yl]methyl]bicyclo[1.1.1]pentane-1-carboxylic acid] | A (RLU 5.0 μM-10 μM)
26 | C[C@H](Oc1cncc(-n2nc(C(F)(F)F)c3c2N(C[C@H]2CC[C@H](C(=O)O)CC2)CCC3)c1)c1ccc2c(c1)OC(F)(F)O2 [Example 13, Trans-4-[[1-[5-[(1S)-1-(2,2-difluoro-1,3-benzodioxol-5-yl)ethoxy]-3-pyridyl]-3-(trifluoromethyl)-5,6-dihydro-4H-pyrazolo[3,4-b]pyridine-7-yl]methyl]cyclohexanecarboxylic acid] | B (RLU 3.5 μM-5.0 μM)
27 | C[C@H](Oc1cccc(-n2nc(C(F)(F)F)c3c2N(C(=O)N2CCC(C(=O)O)CC2)CCC3)c1)c1ccc2c(c1)OC(F)(F)O2 [Example 18, 1-[1-[3-[(1S)-1-(2,2-difluoro-1,3-benzodioxol-5-yl)ethoxy]phenyl]-3-(trifluoromethyl)-5,6-dihydro-4H-pyrazolo[3,4-b]pyridine-7-carbonyl]piperidine-4-carboxylic acid] | A (RLU 5.0 μM-10 μM)
